These compounds were tested against hNav1.7 (Homo sapiens, UniProt Q15858) (assay: Voltage-dependent inhibition of the Nav1.7 sodium channel). Settings: voltage-dependent block of peak current.
Type: cell-based
Experimental: HEK-293 cells stably expressing wild-type (WT) hNav1.7 were obtained from Scottish Biomedical (Glasgow, Scotland, United Kingdom). Cells are maintained with standard tissue culture procedures and stable channel expression is maintained with 500 ug/mL G418 in the culture medium. Unless otherwise noted, all reagents are purchased from Sigma-Aldrich (St Louis, Mo., U.S.A.).
Assays measuring Voltage-Dependent Block (VDB) of Nav1.7 are performed on an automated electrophysiology platform, QPatch 16X or QPatch HT (Sophion Bioscience, Copenhagen, Denmark), using the whole cell patch clamp technique to measure currents through the cell membrane. Series resistance compensation is set to 100% and series resistance and whole-cell compensation are performed automatically. Currents stored in the Sophion Bioscience Oracle database (Sophion Bioscience, Copenhagen, Denmark). Analysis is performed using QPatch Assay software and data are compiled in Excel 2010 (Microsoft, Seattle, Wash., U.S.A.).
The internal (pipette) solution consists of (in mM) 105 CsF, 10 NaF, 20 CsCl, 2 EGTA, 10 HEPES, 10 Dextrose with a pH of 7.35 and osmolarity of 300 mOsmol/kg. The external (bath) solution contains in (mM): 140 NaCl, 4 KCl, 1.8 CaCl2, 1 MgCl2, 10 dextrose, 10 HEPES, with a pH of 7.35 and osmolarity of 310 mOsmol/kg. Experiments are carried out at 23-25° C.
Compound stocks are routinely made by the Gilead Sample Bank in vials to 10 mM in dimethyl sulfoxide (DMSO). In some cases, when compounds are not soluble in DMSO, they are made in 100% ethanol. Stocks are sonicated as necessary. Compounds are diluted in extracellular solution using a MicroLab Nimbus (Hamilton Robotics, Reno, Nev.) to 1 μM in glass vials and transferred to glass well plates before robotic addition to the cells.
Cells are allowed to stabilize for 10 min after establishment of the whole-cell configuration before current is measured. The test compound is applied 3 times at 120 second intervals to allow for equilibration. Currents were leak subtracted using a P/4 procedure, low-pass Bessel filtered at 5 kHz and digitized at 25 kHz. Results are presented as mean percentage inhibition.
Voltage-dependent block of Nav1.7 peak current was measured during a voltage step to 0 mV (20 ms) following a voltage step pre-conditioning steps (−60 mV for 10 sec followed by −120 mV for 10 ms). The holding potential was −120 mV and this voltage protocol induces half maximal inactivation of Nav1.7. The voltage protocol for VDB was performed every 45 seconds in the absence and presence of compound and percentage inhibition was calculated with respect to the compound free condition.

hNav1.7, sequence (Q15858 whole entry): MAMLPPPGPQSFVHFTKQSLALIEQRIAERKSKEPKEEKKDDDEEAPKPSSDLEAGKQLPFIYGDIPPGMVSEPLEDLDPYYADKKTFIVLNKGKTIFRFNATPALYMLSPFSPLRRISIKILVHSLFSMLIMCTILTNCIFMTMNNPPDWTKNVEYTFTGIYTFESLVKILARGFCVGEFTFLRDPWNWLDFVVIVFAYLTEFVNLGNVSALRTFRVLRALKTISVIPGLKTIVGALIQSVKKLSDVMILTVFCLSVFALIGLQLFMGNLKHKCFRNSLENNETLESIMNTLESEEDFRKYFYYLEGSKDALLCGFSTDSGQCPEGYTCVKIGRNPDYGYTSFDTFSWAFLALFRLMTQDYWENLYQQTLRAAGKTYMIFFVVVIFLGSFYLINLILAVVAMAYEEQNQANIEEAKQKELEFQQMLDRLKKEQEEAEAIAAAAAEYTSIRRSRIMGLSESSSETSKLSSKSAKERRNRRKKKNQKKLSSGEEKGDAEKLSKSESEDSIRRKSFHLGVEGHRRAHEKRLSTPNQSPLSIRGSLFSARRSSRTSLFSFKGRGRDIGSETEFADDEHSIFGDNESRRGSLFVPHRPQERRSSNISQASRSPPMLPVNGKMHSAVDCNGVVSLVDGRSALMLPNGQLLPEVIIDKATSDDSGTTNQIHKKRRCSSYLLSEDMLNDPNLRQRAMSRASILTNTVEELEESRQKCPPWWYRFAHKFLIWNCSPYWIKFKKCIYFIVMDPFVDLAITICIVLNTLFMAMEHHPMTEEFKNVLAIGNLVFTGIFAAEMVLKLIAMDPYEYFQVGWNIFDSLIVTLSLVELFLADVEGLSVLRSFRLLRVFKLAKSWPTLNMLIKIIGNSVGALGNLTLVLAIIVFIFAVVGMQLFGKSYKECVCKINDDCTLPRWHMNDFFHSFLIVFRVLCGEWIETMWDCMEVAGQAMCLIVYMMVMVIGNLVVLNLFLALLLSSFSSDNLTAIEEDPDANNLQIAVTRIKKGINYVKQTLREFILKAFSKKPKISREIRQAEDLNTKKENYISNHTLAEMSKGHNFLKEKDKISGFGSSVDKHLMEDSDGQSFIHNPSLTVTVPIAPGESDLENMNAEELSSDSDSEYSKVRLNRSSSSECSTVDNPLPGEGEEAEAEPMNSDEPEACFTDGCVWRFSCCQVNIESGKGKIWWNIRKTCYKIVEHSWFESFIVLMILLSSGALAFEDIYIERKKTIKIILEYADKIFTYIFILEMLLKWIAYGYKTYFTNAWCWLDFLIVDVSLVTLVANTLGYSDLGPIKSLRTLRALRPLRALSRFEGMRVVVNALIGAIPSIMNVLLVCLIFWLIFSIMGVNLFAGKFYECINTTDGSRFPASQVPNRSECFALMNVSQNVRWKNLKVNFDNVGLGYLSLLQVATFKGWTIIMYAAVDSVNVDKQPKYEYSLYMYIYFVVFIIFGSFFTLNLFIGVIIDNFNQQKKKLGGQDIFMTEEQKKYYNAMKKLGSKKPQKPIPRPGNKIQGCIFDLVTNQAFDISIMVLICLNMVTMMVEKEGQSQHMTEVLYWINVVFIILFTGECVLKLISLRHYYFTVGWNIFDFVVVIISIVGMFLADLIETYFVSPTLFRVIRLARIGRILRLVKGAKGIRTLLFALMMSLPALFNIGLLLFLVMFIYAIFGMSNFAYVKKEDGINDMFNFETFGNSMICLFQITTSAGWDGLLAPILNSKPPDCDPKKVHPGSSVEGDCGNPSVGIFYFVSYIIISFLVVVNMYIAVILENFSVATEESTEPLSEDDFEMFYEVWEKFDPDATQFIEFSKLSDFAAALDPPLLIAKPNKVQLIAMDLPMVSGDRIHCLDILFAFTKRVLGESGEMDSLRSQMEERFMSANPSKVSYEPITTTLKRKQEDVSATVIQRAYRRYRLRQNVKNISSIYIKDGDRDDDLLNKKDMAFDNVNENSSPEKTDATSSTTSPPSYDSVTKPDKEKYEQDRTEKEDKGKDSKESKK

| Compound | Nav 1.7-VDB 1 uM [percentage inhibition] |
| --- | --- |
| COc1cc(OC(F)(F)F)ccc1-c1ccc2onc(OCc3ncccn3)c2c1 [Example 4, 5-(2-methoxy-4-(trifluoromethoxy)phenyl)-3-(pyrimidin-2-ylmethoxy)benzo[d]isoxazole] | 28.6 |
| Fc1cc(C(F)(F)F)ccc1-c1ccc2onc(OCc3ncccn3)c2c1 [Example 6, 5-(2-fluoro-4-(trifluoromethyl)phenyl)-3-(pyrimidin-2-ylmethoxy)benzo[d]isoxazole] | 15.6 |
| FC(F)(F)Oc1cccc(-c2ccc3onc(OCc4ncccn4)c3c2)c1 [Example 10, 3-(pyrimidin-2-ylmethoxy)-5-(3-(trifluoromethoxy)phenyl)benzo[d]isoxazole] | 10.0 |
| Cc1nnc(COc2noc3ccc(-c4ccc(OC(F)(F)F)cc4)cc23)o1 [Example 99, 3-((5-methyl-1,3,4-oxadiazol-2-yl)methoxy)-5-(4-(trifluoromethoxy)phenyl)benzo[d]isoxazole] | 59.3 |

Source: US9416115B2, “Fused heterocyclic compounds as ion channel modulators” (Gilead Sciences, Inc., priority 2013, dated 2016)
